Experimental data: the kinase profiling compilation of Christmann-Franck et al. (2016)

Experiments:
Experiment in all cases: radiometric filter-binding kinase assay, Kinase HotSpot
Settings in all cases: compound 0.5 µM; ATP 10 µM
ABL2 (human) = ABL2 (human) (UniProt P42684)
ACVRL1 (human) = ACVRL1 (human) (UniProt P37023)
AKT3 (human) = AKT3 (human) (UniProt Q9Y243)
BLK (human) = BLK (human) (UniProt P51451)
CAMK1G (human) = CAMK1G (human) (UniProt Q96NX5)
CAMK4 (human) = CAMK4 (human) (UniProt Q16566)
CAMKK1 (human) = CAMKK1 (human) (UniProt Q8N5S9)
Sequence of CAMKK1 (human) (Q8N5S9 whole entry, looked up): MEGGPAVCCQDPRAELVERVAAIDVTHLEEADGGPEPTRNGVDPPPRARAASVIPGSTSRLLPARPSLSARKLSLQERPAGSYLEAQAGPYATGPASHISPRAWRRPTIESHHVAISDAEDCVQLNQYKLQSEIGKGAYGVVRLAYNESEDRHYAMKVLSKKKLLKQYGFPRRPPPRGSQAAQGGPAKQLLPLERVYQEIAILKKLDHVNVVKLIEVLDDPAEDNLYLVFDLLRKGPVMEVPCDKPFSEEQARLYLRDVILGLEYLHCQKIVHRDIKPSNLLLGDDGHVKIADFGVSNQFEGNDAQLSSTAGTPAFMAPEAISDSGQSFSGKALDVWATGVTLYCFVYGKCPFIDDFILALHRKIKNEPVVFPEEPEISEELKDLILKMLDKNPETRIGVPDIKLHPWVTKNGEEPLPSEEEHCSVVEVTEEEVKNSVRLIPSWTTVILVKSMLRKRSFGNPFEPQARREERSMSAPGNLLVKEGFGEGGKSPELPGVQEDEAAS

CDC42BPB (human) = CDC42BPB (human) (UniProt Q9Y5S2)
CDK1 CCNB1 (human) = CDK1 CCNB1 (human) (UniProt P06493+P14635)
CDK6 CCND3 (human) = CDK6 CCND3 (human) (UniProt P30281+Q00534)
CLK2 (human) = CLK2 (human) (UniProt P49760)
FER (human) = FER (human) (UniProt P16591)
FGFR2 (human) = FGFR2 (human) (UniProt P21802)
FRK (human) = FRK (human) (UniProt P42685)
GRK4 (human) = GRK4 (human) (UniProt P32298)
GRK7 (human) = GRK7 (human) (UniProt Q8WTQ7)
HIPK2 (human) = HIPK2 (human) (UniProt Q9H2X6)
Sequence of HIPK2 (human) (Q9H2X6 whole entry, looked up): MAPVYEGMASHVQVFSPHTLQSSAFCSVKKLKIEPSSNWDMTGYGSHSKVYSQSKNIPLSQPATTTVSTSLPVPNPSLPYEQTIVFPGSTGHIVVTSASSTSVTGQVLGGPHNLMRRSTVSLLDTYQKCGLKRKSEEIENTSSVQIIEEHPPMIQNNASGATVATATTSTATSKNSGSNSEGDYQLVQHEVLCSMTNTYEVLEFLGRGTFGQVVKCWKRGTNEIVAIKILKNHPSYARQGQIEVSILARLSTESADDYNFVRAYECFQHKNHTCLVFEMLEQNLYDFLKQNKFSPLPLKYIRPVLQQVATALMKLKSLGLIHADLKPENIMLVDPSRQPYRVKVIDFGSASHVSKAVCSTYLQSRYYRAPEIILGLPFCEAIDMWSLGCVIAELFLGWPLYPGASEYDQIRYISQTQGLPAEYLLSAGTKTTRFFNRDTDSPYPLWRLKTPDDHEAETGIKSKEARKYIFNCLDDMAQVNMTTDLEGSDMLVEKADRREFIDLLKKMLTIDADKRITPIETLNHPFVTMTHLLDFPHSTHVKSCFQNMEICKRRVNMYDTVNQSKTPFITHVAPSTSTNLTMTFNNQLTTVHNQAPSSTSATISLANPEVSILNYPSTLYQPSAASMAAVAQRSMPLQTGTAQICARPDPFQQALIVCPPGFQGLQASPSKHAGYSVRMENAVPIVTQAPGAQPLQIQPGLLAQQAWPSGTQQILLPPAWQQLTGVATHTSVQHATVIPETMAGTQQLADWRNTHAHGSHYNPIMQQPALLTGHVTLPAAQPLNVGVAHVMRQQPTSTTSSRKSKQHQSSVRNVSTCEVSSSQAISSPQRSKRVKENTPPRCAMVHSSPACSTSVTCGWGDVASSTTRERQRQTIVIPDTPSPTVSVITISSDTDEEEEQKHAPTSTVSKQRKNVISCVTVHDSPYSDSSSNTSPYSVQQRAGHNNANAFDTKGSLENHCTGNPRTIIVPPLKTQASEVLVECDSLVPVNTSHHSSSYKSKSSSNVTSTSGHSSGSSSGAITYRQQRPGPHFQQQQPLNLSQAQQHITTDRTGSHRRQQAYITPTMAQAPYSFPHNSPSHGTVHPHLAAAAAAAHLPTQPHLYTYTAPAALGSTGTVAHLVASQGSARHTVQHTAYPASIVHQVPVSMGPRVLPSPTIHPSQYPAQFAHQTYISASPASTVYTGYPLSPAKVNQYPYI

HIPK4 (human) = HIPK4 (human) (UniProt Q8NE63)
IKBKB (human) = IKBKB (human) (UniProt O14920)
LCK (human) = LCK (human) (UniProt P06239)
LRRK2 (human) = LRRK2 (human) (UniProt Q5S007)
MAP2K1 (human) = MAP2K1 (human) (UniProt Q02750)
MAP3K14 (human) = MAP3K14 (human) (UniProt Q99558)
MAP3K9 (human) = MAP3K9 (human) (UniProt P80192)
Sequence of MAP3K9 (human) (P80192 whole entry, looked up): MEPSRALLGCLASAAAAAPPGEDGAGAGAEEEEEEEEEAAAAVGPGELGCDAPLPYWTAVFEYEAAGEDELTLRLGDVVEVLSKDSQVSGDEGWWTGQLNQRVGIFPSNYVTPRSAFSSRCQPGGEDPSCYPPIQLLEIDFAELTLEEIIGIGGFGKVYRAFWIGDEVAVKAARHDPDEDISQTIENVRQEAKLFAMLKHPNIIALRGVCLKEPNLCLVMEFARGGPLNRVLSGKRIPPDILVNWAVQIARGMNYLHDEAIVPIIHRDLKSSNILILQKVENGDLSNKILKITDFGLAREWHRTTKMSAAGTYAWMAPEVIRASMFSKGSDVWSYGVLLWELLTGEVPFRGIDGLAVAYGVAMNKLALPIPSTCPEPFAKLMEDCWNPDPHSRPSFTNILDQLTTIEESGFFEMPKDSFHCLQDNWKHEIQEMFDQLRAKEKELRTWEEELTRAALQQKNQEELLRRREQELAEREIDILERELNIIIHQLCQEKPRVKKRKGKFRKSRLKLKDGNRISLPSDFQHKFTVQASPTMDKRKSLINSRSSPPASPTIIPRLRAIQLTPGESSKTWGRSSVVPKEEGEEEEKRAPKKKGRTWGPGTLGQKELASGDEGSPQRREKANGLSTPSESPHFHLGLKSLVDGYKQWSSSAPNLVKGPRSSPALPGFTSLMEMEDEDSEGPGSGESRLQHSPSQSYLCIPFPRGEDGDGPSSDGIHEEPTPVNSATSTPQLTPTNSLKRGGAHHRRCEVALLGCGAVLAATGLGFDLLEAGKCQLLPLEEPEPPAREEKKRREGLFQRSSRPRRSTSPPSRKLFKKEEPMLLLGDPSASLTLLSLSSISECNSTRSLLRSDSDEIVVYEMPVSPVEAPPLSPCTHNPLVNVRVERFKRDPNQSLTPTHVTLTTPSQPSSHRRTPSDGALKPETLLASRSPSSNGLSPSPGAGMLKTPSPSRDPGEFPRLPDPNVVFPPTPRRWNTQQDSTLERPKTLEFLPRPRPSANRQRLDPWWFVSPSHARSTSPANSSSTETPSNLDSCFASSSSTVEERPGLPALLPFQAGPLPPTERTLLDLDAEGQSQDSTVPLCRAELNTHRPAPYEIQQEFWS

MAPKAPK5 (human) = MAPKAPK5 (human) (UniProt Q8IW41)
MST4 (human) = MST4 (human) (UniProt Q9P289)
NEK2 (human) = NEK2 (human) (UniProt P51955)
NEK7 (human) = NEK7 (human) (UniProt Q8TDX7)
Sequence of NEK7 (human) (Q8TDX7 whole entry, looked up): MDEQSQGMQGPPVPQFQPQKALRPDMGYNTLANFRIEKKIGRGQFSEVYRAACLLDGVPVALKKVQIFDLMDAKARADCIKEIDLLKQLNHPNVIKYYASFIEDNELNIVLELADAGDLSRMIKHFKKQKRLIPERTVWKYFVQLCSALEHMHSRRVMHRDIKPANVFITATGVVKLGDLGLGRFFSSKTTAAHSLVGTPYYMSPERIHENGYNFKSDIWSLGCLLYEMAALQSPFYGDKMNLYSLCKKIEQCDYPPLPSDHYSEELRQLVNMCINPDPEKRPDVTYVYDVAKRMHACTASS

PAK1 (human) = PAK1 (human) (UniProt Q13153)
PDGFRB (human) = PDGFRB (human) (UniProt P09619)
PRKD1 (human) = PRKD1 (human) (UniProt Q15139)
Sequence of PRKD1 (human) (Q15139 whole entry, looked up): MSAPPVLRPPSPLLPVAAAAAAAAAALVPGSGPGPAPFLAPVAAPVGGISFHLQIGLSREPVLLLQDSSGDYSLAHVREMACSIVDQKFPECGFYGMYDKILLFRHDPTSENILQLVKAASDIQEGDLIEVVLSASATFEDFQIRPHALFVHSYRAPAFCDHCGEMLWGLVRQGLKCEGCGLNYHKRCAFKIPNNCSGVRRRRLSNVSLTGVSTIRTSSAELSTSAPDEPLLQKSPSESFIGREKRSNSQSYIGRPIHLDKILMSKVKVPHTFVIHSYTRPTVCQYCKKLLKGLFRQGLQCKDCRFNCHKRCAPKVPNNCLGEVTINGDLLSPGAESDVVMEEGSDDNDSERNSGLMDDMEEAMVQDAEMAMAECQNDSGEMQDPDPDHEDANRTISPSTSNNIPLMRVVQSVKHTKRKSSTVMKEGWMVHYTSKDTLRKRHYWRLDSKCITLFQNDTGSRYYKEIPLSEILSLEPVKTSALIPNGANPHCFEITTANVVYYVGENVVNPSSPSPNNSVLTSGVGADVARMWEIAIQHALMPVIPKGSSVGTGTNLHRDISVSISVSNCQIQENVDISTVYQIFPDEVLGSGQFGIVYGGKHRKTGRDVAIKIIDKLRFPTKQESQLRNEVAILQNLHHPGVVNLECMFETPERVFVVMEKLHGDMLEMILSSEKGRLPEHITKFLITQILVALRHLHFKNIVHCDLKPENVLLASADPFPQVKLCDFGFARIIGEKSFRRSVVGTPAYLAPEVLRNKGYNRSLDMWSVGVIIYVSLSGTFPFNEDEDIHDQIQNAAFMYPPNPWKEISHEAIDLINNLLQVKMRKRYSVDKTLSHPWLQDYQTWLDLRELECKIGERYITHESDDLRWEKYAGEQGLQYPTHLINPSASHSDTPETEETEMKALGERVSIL

RPS6KB1 (human) = RPS6KB1 (human) (UniProt P23443)
RPS6KB2 (human) = RPS6KB2 (human) (UniProt Q9UBS0)
Sequence of RPS6KB2 (human) (Q9UBS0 whole entry, looked up): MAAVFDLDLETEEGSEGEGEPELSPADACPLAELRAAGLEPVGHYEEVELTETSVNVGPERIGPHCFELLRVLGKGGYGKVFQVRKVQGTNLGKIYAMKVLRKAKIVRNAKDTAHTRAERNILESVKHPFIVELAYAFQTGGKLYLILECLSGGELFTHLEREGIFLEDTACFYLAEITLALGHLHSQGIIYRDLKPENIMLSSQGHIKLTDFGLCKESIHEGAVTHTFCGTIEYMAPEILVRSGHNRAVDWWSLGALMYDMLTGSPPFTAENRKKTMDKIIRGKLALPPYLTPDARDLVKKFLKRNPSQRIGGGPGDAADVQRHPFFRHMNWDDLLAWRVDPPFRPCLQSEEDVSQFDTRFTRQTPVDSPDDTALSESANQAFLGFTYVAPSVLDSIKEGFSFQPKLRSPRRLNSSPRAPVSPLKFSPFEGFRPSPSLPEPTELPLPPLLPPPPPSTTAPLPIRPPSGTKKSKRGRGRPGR

SRPK3 (human) = SRPK3 (human) (UniProt Q9UPE1)
STK11 (human) = STK11 (human) (UniProt Q15831)
STK16 (human) = STK16 (human) (UniProt O75716)
TAOK2 (human) = TAOK2 (human) (UniProt Q9UL54)
TAOK3 (human) = TAOK3 (human) (UniProt Q9H2K8)
TEK (human) = TEK (human) (UniProt Q02763)
TYRO3 (human) = TYRO3 (human) (UniProt Q06418)
ULK2 (human) = ULK2 (human) (UniProt Q8IYT8)
STK3 (human) = STK3 (human) (UniProt Q13188)

Sequence of AKT3 (human) (Q9Y243 whole entry, looked up): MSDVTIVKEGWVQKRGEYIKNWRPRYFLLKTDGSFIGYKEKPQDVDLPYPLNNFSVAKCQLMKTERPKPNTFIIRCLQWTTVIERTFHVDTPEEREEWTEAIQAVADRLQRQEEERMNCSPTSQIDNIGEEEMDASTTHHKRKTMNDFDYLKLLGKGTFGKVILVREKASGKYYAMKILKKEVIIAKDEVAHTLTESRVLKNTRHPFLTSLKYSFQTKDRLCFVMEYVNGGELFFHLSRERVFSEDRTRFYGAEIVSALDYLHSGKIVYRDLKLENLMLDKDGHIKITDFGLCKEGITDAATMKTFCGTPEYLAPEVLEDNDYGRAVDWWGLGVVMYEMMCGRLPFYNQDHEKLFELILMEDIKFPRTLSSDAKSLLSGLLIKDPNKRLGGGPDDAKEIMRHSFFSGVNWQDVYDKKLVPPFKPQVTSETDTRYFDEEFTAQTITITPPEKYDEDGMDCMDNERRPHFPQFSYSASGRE

CC(C)(C)c1cc(C=C(C#N)C#N)cc(Br)c1O
residual activity (ABL2 (human)): 57.1% | residual activity (ACVRL1 (human)): 105% | residual activity (AKT3 (human)): 111% | residual activity (BLK (human)): 97.9% | residual activity (CAMK1G (human)): 104% | residual activity (CAMK4 (human)): 94.2% | residual activity (CAMKK1 (human)): 120% | residual activity (CDC42BPB (human)): 103% | residual activity (CDK1 CCNB1 (human)): 72.6% | residual activity (CDK6 CCND3 (human)): 89.3% | residual activity (CLK2 (human)): 104% | residual activity (FER (human)): 100% | residual activity (FGFR2 (human)): 96.4% | residual activity (FRK (human)): 99.3% | residual activity (GRK4 (human)): 101% | residual activity (GRK7 (human)): 107% | residual activity (HIPK2 (human)): 110% | residual activity (HIPK4 (human)): 103% | residual activity (IKBKB (human)): 95.7% | residual activity (LCK (human)): 87.8% | residual activity (LRRK2 (human)): 109% | residual activity (MAP2K1 (human)): 90.8% | residual activity (MAP3K14 (human)): 97.3% | residual activity (MAP3K9 (human)): 90.2% | residual activity (MAPKAPK5 (human)): 97.4% | residual activity (MST4 (human)): 95.2% | residual activity (NEK2 (human)): 96% | residual activity (NEK7 (human)): 89.5% | residual activity (PAK1 (human)): 89.9% | residual activity (PDGFRB (human)): 104% | residual activity (PRKD1 (human)): 100% | residual activity (RPS6KB1 (human)): 91.3% | residual activity (RPS6KB2 (human)): 102% | residual activity (SRPK3 (human)): 79.4% | residual activity (STK11 (human)): 85.2% | residual activity (STK16 (human)): 99.2% | residual activity (TAOK2 (human)): 96.5% | residual activity (TAOK3 (human)): 122% | residual activity (TEK (human)): 97.9% | residual activity (TYRO3 (human)): 110% | residual activity (ULK2 (human)): 103%

COc1cc(Nc2c(C#N)cnc3cc(OCCCN4CCN(C)CC4)c(OC)cc23)c(Cl)cc1Cl
residual activity (ABL2 (human)): 2.19% | residual activity (ACVRL1 (human)): 67.6% | residual activity (AKT3 (human)): 90.7% | residual activity (BLK (human)): 20.7% | residual activity (CAMK1G (human)): 82.7% | residual activity (CAMK4 (human)): 90.7% | residual activity (CAMKK1 (human)): 84.8% | residual activity (CDC42BPB (human)): 88.2% | residual activity (CDK1 CCNB1 (human)): 95.9% | residual activity (CDK6 CCND3 (human)): 122% | residual activity (CLK2 (human)): 69.3% | residual activity (FER (human)): 54.6% | residual activity (FGFR2 (human)): 58.1% | residual activity (FRK (human)): 29.2% | residual activity (GRK4 (human)): 92.4% | residual activity (GRK7 (human)): 101% | residual activity (HIPK2 (human)): 89% | residual activity (HIPK4 (human)): 74.6% | residual activity (IKBKB (human)): 95.4% | residual activity (LCK (human)): 1.88% | residual activity (LRRK2 (human)): 30.1% | residual activity (MAP3K14 (human)): 129% | residual activity (MAP3K9 (human)): 16.5% | residual activity (MAPKAPK5 (human)): 94.7% | residual activity (MST4 (human)): 5.9% | residual activity (NEK2 (human)): 8.56% | residual activity (NEK7 (human)): 94.6% | residual activity (PAK1 (human)): 11.7% | residual activity (PDGFRB (human)): 74.8% | residual activity (PRKD1 (human)): 43.7% | residual activity (RPS6KB1 (human)): 87.7% | residual activity (RPS6KB2 (human)): 107% | residual activity (SRPK3 (human)): 106% | residual activity (STK11 (human)): 98.1% | residual activity (STK16 (human)): 85.1% | residual activity (STK3 (human)): 13.9% | residual activity (TAOK2 (human)): 65.4% | residual activity (TAOK3 (human)): 71.3% | residual activity (TEK (human)): 82.6% | residual activity (ULK2 (human)): 92.2%
